Laboratory results as given in US20200024278A1, “COMPOSITION COMPRISING ANTIBIOTIC COMPOUND AND AN HETEROCYCLIC COMPOUND AND THEIR USE IN PREVENTING OR TREATING BACTERIAL INFECTIONS” (MUTABILIS, priority 2016, published 2020).
Read-outs that look alike come from different tables or passages of the source.

How the values were obtained:
Test in all cases: MIC, broth microdilution (CLSI), substance alone or ATB combined with compound at 4 or 8 μg/mL
ECO 190317 = type: cell-based, E. coli; settings: ECO 190317; for MIC: Escherichia coli
How it was run: (§1)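 Antibiotic MICs were determined in presence of fixed compound at 4 or 8 μg/mL, and compound MICs alone, by visual growth inhibition. Inoculum 5·10^5 CFU/mL in ca-MHB, incubated 35 °C for 16-20 h per CLSI-M7-A7. Glucose-6-phosphate (25 μg/ml) added when fosfomycin was tested.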

ECO UFR39 = type: cell-based, E. coli; settings: ECO UFR39
How it was run: as §1

SAU 29213 = type: cell-based, S. aureus; settings: SAU 29213
How it was run: as §1

KPN UFR42 = type: cell-based, K. pneumoniae; settings: KPN UFR42
How it was run: as §1

KPN BAA-1898 = type: cell-based, K. pneumoniae; settings: KPN BAA-1898; for MIC: Klebsiella pneumoniae, BAA1898
How it was run: as §1

KPN 6299 = type: cell-based, K. pneumoniae; settings: for MIC: Klebsiella pneumoniae
How it was run: as §1

[1] = antibiotic alone, read-out: MIC ATB alone

Q: For COCC1=C(C(=O)O)N2C(=O)[C@@H](NC(=O)/C(=N\OC)c3csc(N)n3)[C@H]2SC1 [POD, Cefpodoxime, reference compound], which “MIC ATB combined with Example 15 @4 μgml” value (ECO 190317; with Example 15 at 4 μg/ml) is on record?
A: Its value is under 0.031 µg/mL.

Q: What about the “MIC ATB combined with Example 16 @4 μg/ml” value (ECO 190317; with Example 16 at 4 μg/ml) of the same compound?
A: Its value is under 0.031 µg/mL.

Q: What about the MIC (ECO 190317; [1]) of the same compound?
A: The MIC was over 512 µg/mL.

Q: And the MIC (ECO 190317; substance alone, read-out: MIC)?
A: The MIC was over 512 µg/mL.

Q: What about the “MIC ATB combined with Example 1 @8 μg/ml” value (ECO UFR39; with Example 1 at 8 μg/ml) of the same compound?
A: The value was under 0.031 µg/mL.

Q: What about the “MIC ATB combined with Example 7 @8 μgml” value (ECO UFR39; with Example 7 at 8 μg/ml) of the same compound?
A: Its value is under 0.031 µg/mL.

Q: And the “MIC ATB combined with Example 9 @4 μg/ml” value (ECO UFR39; with Example 9 at 4 μg/ml)?
A: Its value is under 0.031 µg/mL.

Q: And the “MIC ATB combined with Example 11 @8 μg/ml” value (ECO UFR39; with Example 11 at 8 μg/ml)?
A: The value was under 0.031 µg/mL.

Q: And the “MIC ATB combined with Example 12 @8 μg/ml” value (ECO UFR39; with Example 12 at 8 μg/ml)?
A: The value was under 0.031 µg/mL.

Q: What about the “MIC ATB combined with Example 13 @8 μg/ml” value (ECO UFR39; with Example 13 at 8 μg/ml) of the same compound?
A: The value was under 0.031 µg/mL.

Q: What about the “MIC ATB combined with Example 14 @8 μg/ml” value (ECO UFR39; with Example 14 at 8 μg/ml) of the same compound?
A: The value was under 0.031 µg/mL.

Q: And the “MIC ATB combined with Example 15 @4 μgml” value (ECO UFR39; with Example 15 at 4 μg/ml)?
A: The value was under 0.031 µg/mL.

Q: And the “MIC ATB combined with Example 16 @4 μg/ml” value (ECO UFR39; with Example 16 at 4 μg/ml)?
A: The value was under 0.031 µg/mL.

Q: What about the MIC (ECO UFR39; Escherichia coli, antibiotic alone, read-out: MIC ATB alone) of the same compound?
A: Its MIC is over 256 µg/mL.

Q: What about the “MIC ATB combined with Example 1 @8 μg/ml” value (SAU 29213; with Example 1 at 8 μg/ml) of the same compound?
A: Its value is 4 µg/mL.

Q: And the “MIC ATB combined with Example 7 @8 μgml” value (SAU 29213; with Example 7 at 8 μg/ml)?
A: Its value is 2 µg/mL.

Q: And the “MIC ATB combined with Example 9 @4 μg/ml” value (SAU 29213; with Example 9 at 4 μg/ml)?
A: Its value is “<=0.031 μg/mL”.

Q: What about the “MIC ATB combined with Example 11 @8 μg/ml” value (SAU 29213; with Example 11 at 8 μg/ml) of the same compound?
A: The value was under 0.031 µg/mL.

Q: What about the “MIC ATB combined with Example 12 @8 μg/ml” value (SAU 29213; with Example 12 at 8 μg/ml) of the same compound?
A: Its value is under 0.031 µg/mL.

Q: What about the “MIC ATB combined with Example 13 @8 μg/ml” value (SAU 29213; with Example 13 at 8 μg/ml) of the same compound?
A: Its value is 2 µg/mL.

Q: And the “MIC ATB combined with Example 14 @8 μg/ml” value (SAU 29213; with Example 14 at 8 μg/ml)?
A: Its value is under 0.031 µg/mL.

Q: And the “MIC ATB combined with Example 15 @4 μgml” value (SAU 29213; with Example 15 at 4 μg/ml)?
A: Its value is under 0.031 µg/mL.

Q: What about the “MIC ATB combined with Example 16 @4 μg/ml” value (SAU 29213; with Example 16 at 4 μg/ml) of the same compound?
A: Its value is under 0.031 µg/mL.

Q: And the MIC (SAU 29213; Staphylococcus aureus, antibiotic alone, read-out: MIC ATB alone)?
A: Its MIC is 4 µg/mL.

Q: And the “MIC ATB combined with Example 1 @8 μg/ml” value (KPN UFR42; with Example 1 at 8 μg/ml)?
A: Its value is over 32 µg/mL.

Q: What about the “MIC ATB combined with Example 7 @8 μgml” value (KPN UFR42; with Example 7 at 8 μg/ml) of the same compound?
A: The value was over 32 µg/mL.

Q: What about the “MIC ATB combined with Example 9 @4 μg/ml” value (KPN UFR42; with Example 9 at 4 μg/ml) of the same compound?
A: Its value is over 32 µg/mL.

Q: And the “MIC ATB combined with Example 11 @8 μg/ml” value (KPN UFR42; with Example 11 at 8 μg/ml)?
A: Its value is under 0.031 µg/mL.

Q: What about the “MIC ATB combined with Example 12 @8 μg/ml” value (KPN UFR42; with Example 12 at 8 μg/ml) of the same compound?
A: Its value is under 0.031 µg/mL.

Q: And the “MIC ATB combined with Example 13 @8 μg/ml” value (KPN UFR42; with Example 13 at 8 μg/ml)?
A: The value was over 32 µg/mL.

Q: What about the “MIC ATB combined with Example 14 @8 μg/ml” value (KPN UFR42; with Example 14 at 8 μg/ml) of the same compound?
A: The value was under 0.031 µg/mL.

Q: And the “MIC ATB combined with Example 15 @4 μgml” value (KPN UFR42; with Example 15 at 4 μg/ml)?
A: Its value is under 0.031 µg/mL.

Q: And the “MIC ATB combined with Example 16 @4 μg/ml” value (KPN UFR42; with Example 16 at 4 μg/ml)?
A: Its value is under 0.031 µg/mL.

Q: And the MIC (KPN UFR42; Klebsiella pneumoniae, antibiotic alone, read-out: MIC ATB alone)?
A: Its MIC is over 256 µg/mL.

Q: What about the “MIC ATB combined with Example 1 @8 μg/ml” value (KPN BAA-1898; with Example 1 at 8 μg/ml) of the same compound?
A: Its value is 1 µg/mL.

Q: And the “MIC ATB combined with Example 7 @8 μgml” value (KPN BAA-1898; with Example 7 at 8 μg/ml)?
A: The value was 2 µg/mL.

Q: And the “MIC ATB combined with Example 9 @4 μg/ml” value (KPN BAA-1898; with Example 9 at 4 μg/ml)?
A: The value was under 0.031 µg/mL.

Q: What about the “MIC ATB combined with Example 11 @8 μg/ml” value (KPN BAA-1898; with Example 11 at 8 μg/ml) of the same compound?
A: Its value is under 0.031 µg/mL.

Q: And the “MIC ATB combined with Example 12 @8 μg/ml” value (KPN BAA-1898; with Example 12 at 8 μg/ml)?
A: The value was under 0.031 µg/mL.

Q: And the “MIC ATB combined with Example 13 @8 μg/ml” value (KPN BAA-1898; with Example 13 at 8 μg/ml)?
A: Its value is 1 µg/mL.

Q: And the “MIC ATB combined with Example 14 @8 μg/ml” value (KPN BAA-1898; with Example 14 at 8 μg/ml)?
A: The value was under 0.031 µg/mL.

Q: And the “MIC ATB combined with Example 15 @4 μgml” value (KPN BAA-1898; with Example 15 at 4 μg/ml)?
A: The value was under 0.031 µg/mL.

Q: What about the “MIC ATB combined with Example 16 @4 μg/ml” value (KPN BAA-1898; with Example 16 at 4 μg/ml) of the same compound?
A: The value was under 0.031 µg/mL.

Q: And the MIC (KPN BAA-1898; [1])?
A: Its MIC is over 512 µg/mL.

Q: What about the MIC (KPN BAA-1898; substance alone, read-out: MIC) of the same compound?
A: The MIC was over 512 µg/mL.

Q: What about the MIC (KPN 6299; [1]) of the same compound?
A: The MIC was 64 µg/mL.

Q: What about the MIC (KPN 6299; substance alone, read-out: MIC) of the same compound?
A: Its MIC is 64 µg/mL.

Q: What about the “MIC ATB combined with Example 1 @8 μg/ml” value (KPN 6299; with Example 1 at 8 μg/ml) of the same compound?
A: Its value is 0.25 µg/mL.

Q: What about the “MIC ATB combined with Example 7 @8 μgml” value (KPN 6299; with Example 7 at 8 μg/ml) of the same compound?
A: The value was 0.25 µg/mL.

Q: And the “MIC ATB combined with Example 9 @4 μg/ml” value (KPN 6299; with Example 9 at 4 μg/ml)?
A: The value was under 0.031 µg/mL.

Q: And the “MIC ATB combined with Example 11 @8 μg/ml” value (KPN 6299; with Example 11 at 8 μg/ml)?
A: The value was under 0.031 µg/mL.

Q: What about the “MIC ATB combined with Example 12 @8 μg/ml” value (KPN 6299; with Example 12 at 8 μg/ml) of the same compound?
A: The value was under 0.031 µg/mL.

Q: And the “MIC ATB combined with Example 13 @8 μg/ml” value (KPN 6299; with Example 13 at 8 μg/ml)?
A: Its value is 0.125 µg/mL.

Q: And the “MIC ATB combined with Example 14 @8 μg/ml” value (KPN 6299; with Example 14 at 8 μg/ml)?
A: Its value is under 0.031 µg/mL.

Q: What about the “MIC ATB combined with Example 15 @4 μgml” value (KPN 6299; with Example 15 at 4 μg/ml) of the same compound?
A: The value was under 0.031 µg/mL.

Q: And the “MIC ATB combined with Example 16 @4 μg/ml” value (KPN 6299; with Example 16 at 4 μg/ml)?
A: The value was under 0.031 µg/mL.
